Series [1] has as its system caterpillars of the army worm (Spodoptera frugiperda). Nature of the series: Spodoptera frugiperda test (SPODFR spray treatment). The format is in vivo. To be noted: for Kill rate after 7d in %: 100 g/ha, spray treatment. The procedure: Spodoptera frugiperda Test (SPODFR Spray Treatment) Solvents: 78 parts by weight of acetone • • 1.5 parts by weight of dimethylformamide Emulsifier: 0.5 part by weight of alkylaryl polyglycol ether To produce a suitable preparation of active compound, 1 part by weight of active compound is mixed with the stated amounts of solvents and emulsifier and the concentrate is diluted with emulsifier-containing water to the desired concentration. Discs of maize leaves (Zea mays) are sprayed with an active compound preparation of the desired concentration and after drying populated with caterpillars of the army worm (Spodoptera frugiperda). After the desired period of time, the activity in % is determined. 100% means that all of the caterpillars have been killed; 0% means that none of the caterpillars have been killed.

Series [2] relates to green peach aphid (Myzus persicae). Nature of the series: Myzus test (MYZUPE spray treatment). Format: in vivo. To be noted: for Kill rate after 5d in %: 100 g/ha, spray treatment. The procedure: Myzus Test (MYZUPE Spray Treatment) Solvents: 78 parts by weight of acetone • • 1.5 parts by weight of dimethylformamide Emulsifier: 0.5 part by weight of alkylaryl polyglycol ether To produce a suitable preparation of active compound, 1 part by weight of active compound is mixed with the stated amounts of solvents and emulsifier and the concentrate is diluted with emulsifier-containing water to the desired concentration. Discs of Chinese cabbage (Brassica pekinensis), which are infested by all stages of the green peach aphid (Myzus persicae) are sprayed with an active compound preparation of the desired concentration. After the desired period of time, the activity in % is determined. 100% means that all aphids have been killed; 0% means that none of the aphids have been killed.

A short description of series [3]: logP determination by HPLC (reversed-phase C18), EEC Directive 79/831 Annex V.A8. Format: physicochemical. The note with it: HPLC reversed-phase C18, 43° C., acidic range pH 2.7. The procedure:
The logP values given in the tables and Preparation Examples above are determined in accordance with EEC Directive 79/831 Annex V.A8 by HPLC (High Performance Liquid Chromatography) on a reversed-phase column (C 18). Temperature: 43° C. The determination by LC-MS in the acidic range is carried out at pH 2.7 using 0.1% aqueous formic acid and acetonitrile (contains 0.1% formic acid) as mobile phases; linear gradient from 10% acetonitrile to 95% acetonitrile. Calibration is carried out using unbranched alkan-2-ones (having 3 to 16 carbon atoms) with known logP values (determination of the logP values by the retention times using linear interpolation between two successive alkanones).

Series [4] has as its system larvae of the mustard beetle (Phaedon cochleariae). Kind of series: Phaedon test (sprayed Chinese cabbage discs). The format is in vivo. To be noted: for Kill rate after 7d in %: 100 g/ha. How it is done: Phaedon Test Solvents: 78 parts by weight of acetone • • 1.5 parts by weight of dimethylformamide Emulsifier: 0.5 part by weight of alkylaryl polyglycol ether To produce a suitable preparation of active compound, 1 part by weight of active compound is mixed with the stated amounts of solvents and emulsifier and the concentrate is diluted with emulsifier-containing water to the desired concentration. Discs of Chinese cabbage (Brassica pekinensis) are sprayed with an active compound preparation of the desired concentration and, after drying, populated with larvae of the mustard beetle (Phaedon cochleariae). After the desired period of time, the activity in % is determined. 100% means that all beetle larvae have been killed; 0% means that none of the beetle larvae have been killed.

Series [5] deals with Spodoptera frugiperda larvae. Nature of the series: Spodoptera frugiperda test (treatment by watering). Format: in vivo. The note with it: for Kill rate after 14d in %: 20 ppm, treatment by watering. How it is done:
Spodoptera frugiperda Test Solvent: 7 parts by weight of dimethylformamide Emulsifier: 2 parts by weight of alkylaryl polyglycol ether To produce a suitable preparation of active compound, 1 part by weight of active compound is mixed with the stated amounts of solvent and emulsifier and the concentrate is diluted with water to the desired concentration. Maize plants (Zea mays) are watered with an active compound preparation of the desired concentration and infected with Spodoptera frugiperda larvae. After the desired period of time, the kill in % is determined. 100% means that all larvae have been killed; 0% means that none of the larvae have been killed.

Series [6] has as its system caterpillars of the army worm (Spodoptera exigua). Nature of the series: Spodoptera exigua test (leaf dip). The format is in vivo. How it is done:
(§1) Spodoptera exigua Test Solvent: 7 parts by weight of dimethylformamide Emulsifier: 2 parts by weight of alkylaryl polyglycol ether To produce a suitable preparation of active compound, 1 part by weight of active compound is mixed with the stated amounts of solvent and emulsifier and the concentrate is diluted with emulsifier-containing water to the desired concentration. Cabbage leaves (Brassica oleracea) are treated by being dipped into the active compound preparation of the desired concentration and populated with caterpillars of the army worm (Spodoptera exigua) while the leaves are still moist. After the desired period of time, the kill in % is determined. 100% means that all caterpillars have been killed; 0% means that none of the caterpillars have been killed.

Series [7] has as its system caterpillars of the cotton bollworm (Heliothis armigera). Kind of series: Heliothis armigera test (leaf dip). Format: in vivo. How it is done: as §1, with “Heliothis armigera” for “Spodoptera exigua”, “Soya bean” for “Cabbage”, “(Glycine max.)” for “(Brassica oleracea)”, “cotton bollworm (Heliothis armigera)” for “army worm (Spodoptera exigua)”
Series [8] deals with Spodoptera exigua, resistant strain. Kind of series: Spodoptera exigua test; resistant strain. Format: in vivo. The procedure:
Spodoptera exigua Test; Resistant Strain
Solvent: 7 parts by weight of dimethylformamide
Emulsifier: 2 parts by weight of alkylaryl polyglycol ether
To produce a suitable preparation of active compound, 1 part by weight of active compound is mixed with the stated amounts of solvent and emulsifier and the concentrate is diluted with emulsifier-containing water to the desired concentration.
Cabbage leaves (Brassica oleracea) are treated by being dipped into the active compound preparation of the desired concentration and populated with caterpillars of the army worm (Spodoptera exigua, resistant strain) while the leaves are still moist.
After the desired period of time, the kill in % is determined. 100% means that all caterpillars have been killed; 0% means that none of the caterpillars have been killed.

Structures are written as SMILES.

As for `O=C(Nc1c(Cl)cc(Cl)cc1C1=NOCCO1)c1cc(Cl)nn1-c1ncccc1Cl` [Example I-1-2], in series [1], the “activity in the Spodoptera frugiperda test, spray treatment (in words)” value is reported as “good activity” and the “Kill rate after 7d in %” value was found to be 100%. In addition, in series [2], the “activity in the Myzus test, spray treatment (in words)” value (“activity in the Myzus test” below) is recorded as “good activity” and the “Kill rate after 5d in %” value is on record as 80%. In series [3], this compound yielded a logP of 3.07. Besides, in series [4], the “activity in the Phaedon test (in words)” value is reported as “good activity” and the “Kill rate after 7d in %” value is 100%.
Consider `Cc1cccc(C2=NOCCO2)c1NC(=O)c1cc(C(F)(F)F)nn1-c1ncccc1Cl` [Example I-1-3], for which, in series [1], the “activity in the Spodoptera frugiperda test, spray treatment (in words)” value is on record as “good activity” and the “Kill rate after 7d in %” value is given as 100%. The logP in series [3] was found to be 3.00. Moreover, in series [5], the “activity in the Spodoptera frugiperda test, watering (in words)” value is recorded as “good activity” and the “Kill rate after 14d in %” value was 95%.
Turning to `Cc1cccc(C2=NOCCO2)c1NC(=O)c1cc(Br)nn1-c1ncccc1Cl` [Example I-1-4], in series [1], the “activity in the Spodoptera frugiperda test, spray treatment (in words)” value is recorded as “good activity” and the “Kill rate after 7d in %” value stood at 100%. Besides, the logP in series [3] was found to be 2.59.
Take `Cc1cc(Br)cc(C2=NOCCO2)c1NC(=O)c1cc(Cl)nn1-c1ncccc1Cl` [Example I-1-10]: the “activity in the Spodoptera frugiperda test, spray treatment (in words)” value in series [1] is listed as “good activity”. The “Kill rate after 7d in %” value in series [1] was 100%; in series [6] (20 ppm, 7 d), 100%; in series [4] it was 100%; in series [7] (20 ppm, 7 d), 100%; in series [8] (20 ppm, 7 d, resistant strain), 100%. Also, the logP in series [3] was found to be 3.18. In addition, in series [6], the “activity in the Spodoptera exigua test (in words)” value is given as “good activity”. Further, in series [4], the “activity in the Phaedon test (in words)” value was “good activity”. Also, in series [7], the “activity in the Heliothis armigera test (in words)” value is listed as “good activity”. Besides, in series [5], the “activity in the Spodoptera frugiperda test, watering (in words)” value was “good activity”. In addition, the “Kill rate after 14d in %” value in series [5] was 90%. For the same compound, the “activity in the Spodoptera exigua test, resistant strain (in words)” value in series [8] is “good activity”.
Regarding `Cc1cc(Br)cc(C2=NOCCO2)c1NC(=O)c1cc(Br)nn1-c1ncccc1Cl` [Example I-1-12], in series [1], the “activity in the Spodoptera frugiperda test, spray treatment (in words)” value is “good activity” and the “Kill rate after 7d in %” value is given as 100%. This compound yielded a logP in series [3] of 3.24. In series [4], the “activity in the Phaedon test (in words)” value is listed as “good activity” and the “Kill rate after 7d in %” value came out at 100%.
Regarding `O=C(Nc1c(Cl)cc(Cl)cc1C1=NOCCO1)c1cc(Br)nn1-c1c(Cl)cccc1Cl` [Example I-1-13], the logP in series [3] is 3.98. Also, in series [4], the “activity in the Phaedon test (in words)” value is reported as “good activity” and the “Kill rate after 7d in %” value came out at 100%.
As to `Cc1cc(Cl)cc(C2=NOCCO2)c1NC(=O)c1cc(C(F)(F)F)nn1-c1ncccn1` [Example I-1-14], in series [3], the logP was 2.79.
Still for that read-out and setting: to `O=C(Nc1c(Cl)cc(Cl)cc1C1=NOCCO1)c1cc(C(F)(F)F)nn1-c1ncccn1` [Example I-1-15] belongs 2.80.
Take `O=C(Nc1c(Cl)cc(Cl)cc1C1=NOCCO1)c1cc(Br)cn1-c1ncccc1Cl` [Example I-1-21]: in series [1], the “activity in the Spodoptera frugiperda test, spray treatment (in words)” value is “good activity” and the “Kill rate after 7d in %” value is 100%. The compound further had a logP in series [3] of 3.48. For the same compound, in series [4], the “activity in the Phaedon test (in words)” value is “good activity” and the “Kill rate after 7d in %” value came out at 100%.
As for `Cc1cc(Cl)cc(C2=NOCCO2)c1NC(=O)c1cc(Br)cn1-c1ncccc1Cl` [Example I-1-25], in series [1], the “activity in the Spodoptera frugiperda test, spray treatment (in words)” value was “good activity” and the “Kill rate after 7d in %” value is 83%. In addition, in series [3], the logP is 3.50. Further, in series [4], the “activity in the Phaedon test (in words)” value is listed as “good activity” and the “Kill rate after 7d in %” value amounted to 83%.
Turning to `Cc1cc(I)cc(C2=NOCCN2)c1NC(=O)c1cc(Cl)nn1-c1ncccc1Cl` [Example I-1-26], in series [1], the “activity in the Spodoptera frugiperda test, spray treatment (in words)” value was “good activity” and the “Kill rate after 7d in %” value turned out to be 100%. In series [2], the “activity in the Myzus test” value was “good activity” and the “Kill rate after 5d in %” value was 100%. This compound gave a logP in series [3] of 2.44. In addition, in series [4], the “activity in the Phaedon test (in words)” value is recorded as “good activity” and the “Kill rate after 7d in %” value is 100%.
For the compound `O=C(Nc1c(Cl)cccc1C1=NOCCN1)c1cc(Br)nn1-c1ncccc1Cl` [Example I-1-27], the logP in series [3] amounted to 1.89.
As to `Cc1cccc(C2=NOCCN2)c1NC(=O)c1cc(Br)cn1-c1ncccc1Cl` [Example I-1-28], in series [1], the “activity in the Spodoptera frugiperda test, spray treatment (in words)” value was “good activity” and the “Kill rate after 7d in %” value was found to be 100%. Moreover, the logP in series [3] was determined as 1.83. For the same compound, in series [4], the “activity in the Phaedon test (in words)” value is “good activity” and the “Kill rate after 7d in %” value is on record as 100%.
Take `Cc1cc(Br)cc(C2=NOCCN2)c1NC(=O)c1cc(C(F)(F)F)nn1-c1ncccc1Cl` [Example I-1-29]: in series [1], the “activity in the Spodoptera frugiperda test, spray treatment (in words)” value is given as “good activity” and the “Kill rate after 7d in %” value is reported as 100%. Further, in series [2], the “activity in the Myzus test” value is listed as “good activity” and the “Kill rate after 5d in %” value came out at 100%. Further, the logP in series [3] worked out at 2.80. In series [4], the “activity in the Phaedon test (in words)” value is on record as “good activity” and the “Kill rate after 7d in %” value came to 100%.
Turning to `Cc1cc(Br)cc(C2=NOCCN2)c1NC(=O)c1cc(Cl)nn1-c1ncccc1Cl` [Example I-1-30], in series [1], the “activity in the Spodoptera frugiperda test, spray treatment (in words)” value is reported as “good activity” and the “Kill rate after 7d in %” value is listed as 100%. For the same compound, in series [2], the “activity in the Myzus test” value is reported as “good activity” and the “Kill rate after 5d in %” value is 100%. In series [3], this compound came in with a logP of 2.35. Besides, in series [4], the “activity in the Phaedon test (in words)” value is on record as “good activity” and the “Kill rate after 7d in %” value is 100%.
